Laboratory results from US12582645B2, “Chemokine CXCR4 receptor modulators and uses related thereto” (Emory University, priority 2017, dated 2026).

biological target: T1, CXCR4 (Homo sapiens, UniProt P61073); test: CXCR4-CEM calcium flux assay, antagonist mode (inhibition of SDF-1α-induced calcium flux); assay type: cell-based; details: CCRF-CEM cells expressing endogenous CXCR4, stimulated with 4 nM SDF-1α, read-out: CXCR4 Ca^2+ Flux IC50
T1 construct: Human T lymphoblast cells (CCRF-CEM) expressing endogenous CXCR4 receptors; endogenous in cells; host or cells: CCRF-CEM (human T lymphoblast cells)
T1 sequence (P61073 whole entry): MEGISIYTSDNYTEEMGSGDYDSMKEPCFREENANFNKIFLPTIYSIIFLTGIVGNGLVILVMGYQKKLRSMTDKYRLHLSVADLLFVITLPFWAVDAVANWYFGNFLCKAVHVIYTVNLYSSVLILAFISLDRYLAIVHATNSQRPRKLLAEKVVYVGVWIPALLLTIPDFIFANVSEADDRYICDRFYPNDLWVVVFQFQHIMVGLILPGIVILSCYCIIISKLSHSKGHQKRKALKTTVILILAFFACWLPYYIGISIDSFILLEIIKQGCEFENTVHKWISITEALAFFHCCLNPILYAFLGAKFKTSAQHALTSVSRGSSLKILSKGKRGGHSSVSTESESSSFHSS
Description: CXCR4-CEM Calcium Flux Assays
Exemplary compounds of the invention were tested for their ability to induce or inhibit calcium flux in CCRF-CEM cells, a human cell line that endogenously expresses CXCR4. Activation of CXCR4 stimulates G protein signaling which, in CCRF-CEM cells, causes a series of downstream events that leads to the release of intracellular calcium stores, or calcium flux. Calcium ion concentrations can be easily measured using a wide variety of […] calcium indicators and, as a result, calcium flux assays are commonly employed methods for measuring G protein-coupled receptor (GPCR) activity. Because the therapeutic potential of CXCR4 antagonists as anti-cancer agents likely relies on their ability to inhibit CXCR4-mediated G protein signaling, this assay was utilized as a first-pass measure of inhibitor potency.
The cells were then equilibrated to room temperature for 30 minutes before assay. […] For “antagonist mode” assessment, the cells are subsequently incubated for 25 minutes at room temperature. SDF-1α (R&D System Cat #350-NS/CF) was then added at a final concentration of 4 nM to stimulate the cells. Inhibition of SDF-1α-induced calcium flux was monitored by FDSS6000 for 90 seconds.
After correcting for background, EC50 values were determined. […] Inhibition data for the test compound over a range of concentrations was plotted as percentage inhibition of the test compound as compared to an internal control compound.

IC50 [nM]	Compound
146	NC/C=C/CN(CC1Cc2ncccc2CN1)[C@H]1CCCc2cccnc21 (single isomer, unassigned) [EMU192 (Stereoisomer 1)]
364	CC(C)N(C[C@H]1Cc2c(cccc2N2CCNCC2)CN1)[C@H]1CCCc2cccnc21 [EMU163]
284	N[C@H]1CC[C@H](CN(C[C@H]2Cc3ccccc3CN2)[C@H]2CCCc3cccnc32)CC1 [EMU074]
171	CN1CCN(c2cccc3c2CC(CN(C)[C@H]2CCCc4cccnc42)N(C)C3)CC1 (some centres unmarked) [EMU090]
13.2	C/C(=C/CN(C[C@H]1Cc2ccccc2CN1)[C@H]1CCCc2cccnc21)CN [EMU177]
286	c1ccc(CNCc2ccc(CN(C[C@H]3Cc4ccccc4CN3)[C@H]3CCCc4cccnc43)cc2)nc1 [EMU220, (S)—N-(4-(((pyridin-2-ylmethyl)amino)methyl)benzyl)-N—(((R)-1,2,3,4-tetrahydroisoquinolin-3-yl)methyl)-5,6,7,8-tetrahydroquinolin-8-amine]
33.7	NC1CCC(N(C[C@H]2Cc3ccccc3CN2)[C@H]2CCCc3cccnc32)CC1 (single isomer, unassigned) [EMU073 (Stereoisomer 1)]
~16600	NCCCCN(Cc1cscn1)C[C@H]1Cc2ccccc2CN1 [EMU104, (R)—N1-((1,2,3,4-tetrahydroisoquinolin-3-yl)methyl)-N1-(thiazol-4-ylmethyl)butane-1,4-diamine]
18.7	CN(C[C@H]1Cc2c(cccc2N2C[C@H]3CCN(C)[C@H]3C2)CN1)C1CCCc2cccnc21 (some centres unmarked) [EMU235]
47.4	CN1CCN(Nc2cccc3c2C[C@H](CN(C)[C@H]2CCCc4cccnc42)NC3)CC1 [EMU229]
90.3	c1ccc2c(c1)CN[C@@H](CN(Cc1ccc(CNC3CCOCC3)cc1)[C@H]1CCCc3cccnc31)C2 [EMU217, (S)—N-(4-(((tetrahydro-2H-pyran-4-yl)amino)methyl)benzyl)-N—(((R)-1,2,3,4-tetrahydroisoquinolin-3-yl)methyl)-5,6,7,8-tetrahydroquinolin-8-amine]
25.2	CN1CCN(c2cccc3c2C[C@H](CN2CCC[C@H]4CCc5cccnc5[C@H]42)NC3)CC1 [EMU232, (4aR,10bS)-1-(((R)-5-(4-methylpiperazin-1-yl)-1,2,3,4-tetrahydroisoquinolin-3-yl)methyl)-1,2,3,4,4a,5,6,10b-octahydro-1,10-phenanthroline]
207	NC(=O)NC/C=C\CN(C[C@H]1Cc2ccccc2CN1)[C@H]1CCCc2cccnc21 [EMU211]
25.6	NC/C=C\CN(CC1Cc2ncccc2CN1)[C@H]1CCCc2cccnc21 (single isomer, unassigned) [EMU142 (Stereoisomer 1)]
35.9	CN(C)C1CCN(c2cccc3c2C[C@H](CN(C)[C@H]2CCCc4cccnc42)NC3)CC1 [EMU228]
755	CN(C[C@H]1Cc2c(cccc2N[C@H]2CC[C@H](N)CC2)CN1)[C@H]1CCCc2cccnc21 [EMU089]
661	CC1(C)CCC(NCc2ccc(CN(C[C@H]3Cc4ccccc4CN3)[C@H]3CCCc4cccnc43)cc2)CC1 [EMU181, (S)—N-(4-(((4,4-dimethylcyclohexyl)amino)methyl)benzyl)-N—(((R)-1,2,3,4-tetrahydroisoquinolin-3-yl)methyl)-5,6,7,8-tetrahydroquinolin-8-amine]
292	NCc1cccc(CN(C[C@H]2Cc3ccccc3CN2)[C@H]2CCCc3cccnc32)c1 [EMU094, (S)—N-(3-(aminomethyl)benzyl)-N—(((R)-1,2,3,4-tetrahydroisoquinolin-3-yl)methyl)-5,6,7,8-tetrahydroquinolin-8-amine]
134	c1ccc2c(c1)CN[C@@H](CN(Cc1ccc(CNCc3ccncc3)cc1)[C@H]1CCCc3cccnc31)C2 [EMU218, (S)—N-(4-(((pyridin-4-ylmethyl)amino)methyl)benzyl)-N—(((R)-1,2,3,4-tetrahydroisoquinolin-3-yl)methyl)-5,6,7,8-tetrahydroquinolin-8-amine]
9.56	CN1C[C@@H]2CN(c3cccc4c3C[C@H](CN(C)C3CCCc5cccnc53)NC4)C[C@@H]2C1 (some centres unmarked) [EMU227]
98	FC1(F)CCC(NC/C=C\CN(C[C@H]2Cc3ccccc3CN2)[C@H]2CCCc3cccnc32)CC1 [EMU143]
1290	c1cnc2c(c1)CCC[C@@H]2N(CC1CCCCC1)CC1Cc2c(cccc2N2CCNCC2)CN1 (single isomer, unassigned) [EMU100 (Stereoisomer 2)]

IC50 [nM]	Compound
20.7	CN(C[C@H]1Cc2c(cccc2N2C[C@H]3C[C@@H]2CN3)CN1)[C@H]1CCCc2cccnc21 [EMU200]
> 16700	CN(C[C@H]1Cc2c(cccc2N2CCN(c3cccc(C(F)(F)F)c3)CC2)CN1)[C@H]1CCCc2cccnc21 [EMU226]
26.6	c1cnc2c(c1)CCC[C@@H]2N(CC1CC1)C[C@H]1Cc2c(cccc2N2CCNCC2)CN1 [EMU119]
10.3	CN(C[C@H]1Cc2c(cccc2N2CC3CNCC3C2)CN1)C1CCCc2cccnc21 (some centres unmarked) [EMU062]
64.6	CC1(C)CCC(NC/C=C/CN(C[C@H]2Cc3ccccc3CN2)[C@H]2CCCc3cccnc32)CC1 [EMU153, (E)-N1-(4,4-dimethylcyclohexyl)-N4-(((R)-1,2,3,4-tetrahydroisoquinolin-3-yl)methyl)-N4-((S)-5,6,7,8-tetrahydroquinolin-8-yl)but-2-ene-1,4-diamine]
13.8	CCN1CCN(c2cccc3c2C[C@H](CN(C)[C@H]2CCCc4cccnc42)NC3)CC1 [EMU199]
6270	CN1CCN(c2ccccc2CN2CCNC(CN(C)[C@H]3CCCc4cccnc43)C2)CC1 (stereo partly drawn) [EMU070, (8S)—N-methyl-N-((4-(2 (4-methylpiperazin-1-yl)benzyl)piperazin-2-yl)methyl)-5,6,7,8-tetrahydroquinolin-8-amine]
44.6	CN1Cc2cccc(N3CCN4CCC[C@@H]4C3)c2C[C@@H]1CN(C)[C@H]1CCCc2cccnc21 [EMU239]
15.5	C(=C\CN(C[C@H]1Cc2ccccc2CN1)[C@H]1CCCc2cccnc21)/CNC1CCOCC1 [EMU155, (E)-N1-(tetrahydro-2H-pyran-4-yl)-N4-(((R)-1,2,3,4-tetrahydroisoquinolin-3-yl)methyl)-N4-((S)-5,6,7,8-tetrahydroquinolin-8-yl)but-2-ene-1,4-diamine]
58.3	C(=C\CN(C[C@H]1Cc2ccccc2CN1)[C@H]1CCCc2cccnc21)/CNCc1ccccn1 [EMU223, (E)-N1-(pyridin-2-ylmethyl)-N4-(((R)-1,2,3,4-tetrahydroisoquinolin-3-yl)methyl)-N4-((S)-5,6,7,8-tetrahydroquinolin-8-yl)but-2-ene-1,4-diamine]
10.4	CN(C)[C@@H]1CCN(c2cccc3c2C[C@H](CN(C)[C@H]2CCCc4cccnc42)NC3)C1 [EMU237]
82.1	FC1(F)CCC(NC/C=C/CN(C[C@H]2Cc3ccccc3CN2)[C@H]2CCCc3cccnc32)CC1 [EMU154, (E)-N1-(4,4-difluorocyclohexyl)-N4-(((R)-1,2,3,4-tetrahydroisoquinolin-3-yl)methyl)-N4-((S)-5,6,7,8-tetrahydroquinolin-8-yl)but-2-ene-1,4-diamine]
463	NC(=O)NC/C=C\CN(CC1Cc2ncccc2CN1)[C@H]1CCCc2cccnc21 (single isomer, unassigned) [EMU209 (Stereoisomer 1)]
33.4	CN(CC1Cc2c(cccc2N2CCC(N)CC2)CN1)[C@H]1CCCc2cccnc21 (single isomer, unassigned) [EMU058]
23.5	CN(C[C@H]1Cc2c(cccc2N2CCN(C3CC3)CC2)CN1)[C@H]1CCCc2cccnc21 [EMU196]
6.42	NCC1CC1CN(C[C@H]1Cc2ccccc2CN1)[C@H]1CCCc2cccnc21 (single isomer, unassigned) [EMU030 (Stereoisomer 1)]
9.88	Cc1cccnc1CN(CCCCN)C[C@H]1Cc2c(cccc2N2CCNCC2)CN1 [EMU166, (R)—N1-((3-methylpyridin-2-yl)methyl)-N1-((5-(piperazin-1-yl)-1,2,3,4-tetrahydroisoquinolin-3-yl)methyl)butane-1,4-diamine]
28.2	C/C(=C/CN)CN(C[C@H]1Cc2ccccc2CN1)[C@H]1CCCc2cccnc21 [EMU208]
14.1	C[C@@H]1CN(c2cccc3c2C[C@H](CN(C)[C@H]2CCCc4cccnc42)NC3)C[C@H](C)N1C [EMU198]
30.7	CN(C[C@H]1Cc2c(cccc2N2CCN(c3ncccn3)CC2)CN1)[C@H]1CCCc2cccnc21 [EMU203]
1880	C/C(CN(C[C@H]1Cc2ccccc2CN1)[C@H]1CCCc2cccnc21)=C(/F)CN [EMU126]

Compound	IC50 [nM]
Cc1ccc(CN(C)C[C@H]2Cc3c(cccc3N3CCNCC3)CN2)nc1 [EMU130, (R)—N-methyl-1-(5-methylpyridin-2-yl)-N-((5-(piperazin-1-yl)-1,2,3,4-tetrahydroisoquinolin-3-yl)methyl)methanamine]	510
NC[C@H]1CC[C@H](CN(C[C@H]2Cc3ccccc3CN2)[C@H]2CCCc3cccnc32)CC1 [EMU121]	343
CN(C[C@H]1Cc2c(cccc2N2CCN(C3COC3)CC2)CN1)[C@H]1CCCc2cccnc21 [EMU183]	380

same assay, conditions: CXCR4 Ca^2+ Flux IC50, CCRF-CEM cells expressing endogenous CXCR4, stimulated with 4 nM SDF-1α

Compound	IC50 [nM]
c1cnc2c(c1)CCC[C@@H]2N(CCCN1CCNCC1)Cc1cc2ccccc2cn1 [EMU168]	17.3
